# What was measured:
# [1] = target: T1, PTPN2 (Homo sapiens, UniProt P17706); assay: HiBiT PTPN2 degradation in 293T.109 (HiBiT-PTPN2) cells, 24 hours; format: cell-based; details: 293T.109 cells
# T1 construct: expressed in transfected cells; host or cells: 293T.109 (HiBiT-PTPN2), derived from 293T WT (ATCC)
# T1 sequence (P17706 1-415): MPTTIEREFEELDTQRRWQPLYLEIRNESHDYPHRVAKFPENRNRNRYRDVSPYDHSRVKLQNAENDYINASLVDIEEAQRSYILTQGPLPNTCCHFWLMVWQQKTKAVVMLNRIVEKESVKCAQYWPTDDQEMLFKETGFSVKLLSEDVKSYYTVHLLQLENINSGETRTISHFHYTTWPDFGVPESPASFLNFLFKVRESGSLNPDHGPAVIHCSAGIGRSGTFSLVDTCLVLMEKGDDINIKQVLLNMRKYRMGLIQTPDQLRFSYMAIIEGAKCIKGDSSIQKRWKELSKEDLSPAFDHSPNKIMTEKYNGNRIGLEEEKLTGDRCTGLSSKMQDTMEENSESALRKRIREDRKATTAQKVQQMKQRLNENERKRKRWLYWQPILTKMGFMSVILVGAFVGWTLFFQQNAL
# Outline: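 293T cells stably expressing N-terminal HiBiT-tagged PTPN2 were treated for 24 h at 37 °C with compound in an 11-point half-log series from 10 μM top concentration, in duplicate. Remaining HiBiT-PTPN2 was measured by lytic luminescence, with untreated cells as the negative control and wells without lytic reagent as the positive control.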
# [2] = target: T2, PTPN2 (Mus musculus, UniProt Q06180); assay: HiBiT PTPN2 degradation in B16F10.4 cells, 24 hours; format: cell-based
# T2 construct: HiBiT; host or cells: B16F10.4
# T2 sequence (Q06180 1-406): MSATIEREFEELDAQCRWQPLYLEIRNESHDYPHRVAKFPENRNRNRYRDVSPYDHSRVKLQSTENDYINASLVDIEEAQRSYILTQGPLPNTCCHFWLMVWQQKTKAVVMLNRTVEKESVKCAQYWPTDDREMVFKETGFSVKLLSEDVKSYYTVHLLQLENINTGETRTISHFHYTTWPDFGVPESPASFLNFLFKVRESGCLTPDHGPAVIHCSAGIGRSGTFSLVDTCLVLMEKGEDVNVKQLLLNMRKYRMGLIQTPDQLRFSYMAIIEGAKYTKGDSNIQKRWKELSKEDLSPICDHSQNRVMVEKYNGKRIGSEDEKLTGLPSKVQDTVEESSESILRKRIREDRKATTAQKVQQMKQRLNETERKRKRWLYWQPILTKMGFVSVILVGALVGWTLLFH
# Outline: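 PTPN2 degradation was measured via luminescence from the Nano-Glo® HiBiT Lytic Assay kit. Compounds were dispensed into 384-well plates at an 11-point half-log titration in duplicate, starting at 10 μM. Cells were added at 5000 per well and held at 37° C. with 5% CO2 for 24 hours. Untreated cells were the negative control and cells without lytic reagent the positive control. Lytic reagents were then added and luminescence read on an EnVision™ Multilabel Reader.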
DC50 [1] [nM],DC50 [2] [nM],Compound
150 to 500,< 50,Cn1c(=O)n(C2CCC(=O)NC2=O)c2ccc(-c3ccc([C@H](CO)C(=O)Nc4ccc5c(F)c(N6CC(=O)NS6(=O)=O)c(O)cc5c4)cc3)cc21 (stereo partly shown) [Degrader 137]
< 50,< 50,Cn1c(=O)n(C2CCC(=O)NC2=O)c2ccc(-c3ccc([C@@H](CO)C(=O)Nc4ccc5c(F)c(N6CC(=O)NS6(=O)=O)c(O)cc5c4)cc3)cc21 (stereo partly shown) [Degrader 138]
150 to 500,≥ 500,Cn1c(=O)n(C2CCC(=O)NC2=O)c2ccc(N3CCN(CC(=O)Nc4ccc5c(F)c(N6CC(=O)NS6(=O)=O)c(O)cc5c4)C(=O)C3)cc21 (stereo not shown) [Degrader 139]
50 to 150,150 to 500,Cn1c(=O)n(C2CCC(=O)NC2=O)c2ccc(C3CN(CC(=O)Nc4ccc5c(F)c(N6CC(=O)NS6(=O)=O)c(O)cc5c4)CCC3F)cc21 (stereo not shown) [Degrader 140]
< 50,50 to 150,Cn1c(=O)n(C2CCC(=O)NC2=O)c2ccc([C@@H]3CN(CC(=O)Nc4ccc5c(F)c(N6CC(=O)NS6(=O)=O)c(O)cc5c4)CC[C@H]3F)cc21 (stereo partly shown) [Degrader 141]
150 to 500,150 to 500,Cn1c(=O)n(C2CCC(=O)NC2=O)c2ccc([C@H]3CN(CC(=O)Nc4ccc5c(F)c(N6CC(=O)NS6(=O)=O)c(O)cc5c4)CC[C@@H]3F)cc21 (stereo partly shown) [Degrader 142]
50 to 150,< 50,O=C1CCC(N2C(=O)c3cccc4c(N5CCC(CC(=O)Nc6ccc7c(F)c(N8CC(=O)NS8(=O)=O)c(O)cc7c6)CC5)ccc2c34)C(=O)N1 (stereo not shown) [Degrader 143]
< 50,50 to 150,Cn1c(=O)n(C2CCC(=O)NC2=O)c2ccc(N3CCC(CCNC(=O)Nc4ccc5c(F)c(N6CC(=O)NS6(=O)=O)c(O)cc5c4)CC3)c(F)c21 (stereo not shown) [Degrader 144]
≥ 500,≥ 500,Cn1c(=O)n(C2CCC(=O)NC2=O)c2ccc3c(c21)CCCN3CCCC(=O)Nc1ccc2c(F)c(N3CC(=O)NS3(=O)=O)c(O)cc2c1 (stereo not shown) [Degrader 145]
< 50,50 to 150,Cn1c(=O)n(C2CCC(=O)NC2=O)c2ccc3c(c21)CCCN3CCCCC(=O)Nc1ccc2c(F)c(N3CC(=O)NS3(=O)=O)c(O)cc2c1 (stereo not shown) [Degrader 146]
150 to 500,150 to 500,Cn1c(=O)n(C2CCC(=O)NC2=O)c2ccc(N3CCC(CC(=O)Nc4ccc5c(F)c(N6CC(=O)NS6(=O)=O)c(O)cc5c4)CC3)cc21 (stereo not shown) [Degrader 147]
50 to 150,150 to 500,C[C@@H]1CN(CC(=O)Nc2ccc3c(F)c(N4CC(=O)NS4(=O)=O)c(O)cc3c2)CCN1c1ccc2c(c1F)n(C)c(=O)n2C1CCC(=O)NC1=O (stereo partly shown) [Degrader 148]
150 to 500,150 to 500,Cn1c(=O)n(C2CCC(=O)NC2=O)c2ccc(-c3ccn(CC(=O)Nc4ccc5c(F)c(N6CC(=O)NS6(=O)=O)c(O)cc5c4)n3)cc21 (stereo not shown) [Degrader 149]
150 to 500,150 to 500,C[C@@H]1CN(CC(=O)Nc2ccc3c(F)c(N4CC(=O)NS4(=O)=O)c(O)cc3c2)CCN1c1cc2c(cc1F)n(C1CCC(=O)NC1=O)c(=O)n2C (stereo partly shown) [Degrader 150]
150 to 500,150 to 500,Cn1c(=O)n(C2CCC(=O)NC2=O)c2ccc([C@H]3CCCN(CC(=O)Nc4ccc5c(F)c(N6CC(=O)NS6(=O)=O)c(O)cc5c4)C3)cc21 (stereo partly shown) [Degrader 151]
50 to 150,150 to 500,Cn1c(=O)n(C2CCC(=O)NC2=O)c2ccc([C@@H]3CCCN(CC(=O)Nc4ccc5c(F)c(N6CC(=O)NS6(=O)=O)c(O)cc5c4)C3)cc21 (stereo partly shown) [Degrader 152]
150 to 500,50 to 150,Cn1c(=O)n(C2CCC(=O)NC2=O)c2ccc(-n3cc(CC(=O)Nc4ccc5c(F)c(N6CC(=O)NS6(=O)=O)c(O)cc5c4)cn3)cc21 (stereo not shown) [Degrader 153]
150 to 500,150 to 500,O=C1CCC(N2CCc3cc(C4CCN(CC(=O)N5CCC(c6ccc7cc(O)c(N8CC(=O)NS8(=O)=O)c(F)c7c6)CC5)CC4)ccc32)C(=O)N1 (stereo not shown) [Degrader 154]
150 to 500,50 to 150,O=C1CCC(N2C(=O)c3cccc4c(-c5ccc(CC(=O)Nc6ccc7c(F)c(N8CC(=O)NS8(=O)=O)c(O)cc7c6)cc5)ccc2c34)C(=O)N1 (stereo not shown) [Degrader 155]
50 to 150,50 to 150,Cn1c(=O)n(C2CCC(=O)NC2=O)c2ccc(C3=CCC(CC(=O)Nc4ccc5c(F)c(N6CC(=O)NS6(=O)=O)c(O)cc5c4)CC3)cc21 (stereo not shown) [Degrader 157]
